The nature of data set [1]: Solubility of the synthetic peptides. It is filed as physicochemical. Conditions: 10% acetonitrile in water was used to dissolve. An excerpt:
It was synthesized separately. For 324822, protected linear peptide was cleaved from resin and cyclized in DMF following the above procedure. After removing the protecting groups, the peptide was isolated by RP-HPLC purification. […] 10% acetonitrile in water was used to dissolve the peptides.

Data set [2] concerns B16F10 mouse melanoma cells. Briefly: CIF in vitro bioassay: contact inhibitory response of B16F10 cells to test samples. Type of data set: cell-based. To be noted: for CIF activity of synthesized monomer and dimer: monomer and dimer separated by RP-HPLC, each separately bioassayed; for contact inhibition activity of cyclic peptide dimer isomers: peptides A-C unprotected, D-F with one Acm-protected Cys per ring. The text has this:
Contact Inhibitory Factor is a Structurally Novel Endogenous Cyclic Decapeptide Dimer. Determining the Structure of the CIF Molecule—Overall Approach. Identifying the molecule responsible for restoring contact inhibition of growth to melanoma cells first required production of the CIF positive culture medium from the serum free AM cell line (SFAMCM), followed by column chromatography, electrophoresis and mass spectroscopy of this culture medium. Samples obtained after each procedure were evaluated for CIF activity with an in vitro bioassay (Bioassay described herein). Identification of CIF structure evolved in three stages: (1) the CIF active conditioned medium from the AM cells (SFAMCM) contained a single decapeptide; (2) the decapeptide is head-to-tail cyclic; (3) the complete bioactive CIF molecule is a dimer composed of identical disulfide linked cyclic decapeptides. An in vitro bioassay used to monitor and guide purification involved the contact inhibitory response of B16F10 mouse melanoma cells to test samples. The latter included (1) CIF-containing medium from both the AM and revertant FF cell lines; (2) all fractions derived from the AM medium during purification; (3) the synthetic CIF peptide. Results were evaluated independently by two investigators. Samples were graded from 0 to 4, where 0 indicated no activity and 4 indicated maximum activity. Only samples graded 3 or 4 by both investigators were selected for purification.
Bioassay. Preparation of Samples. Conditioned Culture Medium (SFFFCM) and (SFAMCM). The positive control was the CIF positive conditioned culture medium from the FF cell line, SFFFCM. The negative control was DMEM 10% FBS. 3.6 ml of the sample was pipetted into a sterile 15 ml tube and heat activated at 80° C.×10 mins (minutes). After cooling to room temperature 0.4 ml FBS was added to make the FBS concentration 10%. For different volumes of conditioned culture medium the appropriate volume of FBS was added to make the final FBS concentration 10%. Both SFFFCM and SFAMCM were lyophilized and stored in desiccator jars under vacuum at 3° C.
Lyophilized Samples. To prepare the SFFFCM and the SFAMCM for the bioassay they were reconstituted with DMEM, heat activated at 80° C.×10 mins and cooled to room temperature. Sufficient volume of FBS was added to make the final FBS concentration 10%. The final volume of the sample was at least 2 ml to ensure that there was enough material for refeeding the bioassay plates.
Dilution of Samples. The samples were tested at 1:1 (undiluted), 1:2 and 1:4. The dilutions were made with DMEM 10% FBS. Higher dilutions may be used as needed. Each well contained 0.2 ml of sample, including the positive and negative controls. Each sample was done in duplicate. The wells were refed with fresh sample after 48 hrs.
Setting up the Bioassay. Using a 96 well flat bottom plate, 0.2 ml sterile water was pipetted into all outside wells. 0.2 ml 10% DMEM containing 20,000 B16F10 cells were pipetted into each well for the bioassay. Each sample was done in duplicate, including positive and negative controls. […]. The plate was placed in a 37° C., 5% CO2 incubator for approximately 4 hours to allow for cells to attach and spread. The time for attachment may vary for other cell lines. After the cells had attached and spread, the DMEM was removed and replaced with 0.2 ml of sample, positive and negative controls. The wells were observed daily and scored for CIF activity. The wells were refed after 48 hours or as needed, 0.2 ml for weekdays, 0.3 ml for weekends.
Scoring for CIF Activity. The samples were scored for CIF activity as follows:
4+=All cells are contact inhibited, flattened with an elongated fibroblast-like morphology. 3+=Not all cells are contact inhibited, elongated or fibroblast-like. There are a few scattered clusters of dividing cells. 2+=Fewer contact Inhibited cells and more clusters of dividing cells. […]

These results are taken from patent US20210395311A1, “CYCLIC PEPTIDE DIMERS” (New York University, priority 2019, published 2021).

“Also recorded” adds a separate entry of the source. Bridge positions count the residues as written; N and C are the ends. Ends that are not written are not given here. I, II: the chains in the order shown.

In the case of “c (Gly-Met-Met-Cys-Val-Thr-His-Cys-Asn-Gly (SEQ ID NO:1)) w/Cys-Cys bridge (cyclo(GMMCVTHCNG); disulfide 4-8 (inferred)) [compound 324822]”, the “solubility in 100% aqueous solution” value in data set [1] is recorded as “not soluble”.
For the substance “monomer: synthetic head-to-tail cyclic decapeptide Gly-Met-Met-Cys-Val-Thr-His-Cys-Asn-Gly (SEQ ID NO:1), peak at 1034 Da (GMMCVTHCNG; head-to-tail cyclized)”, the “CIF activity of synthesized monomer and dimer” value in data set [2] was “CIF negative”.
For “dimer: synthesized CIF dimer of two identical disulfide linked head-to-tail cyclic decapeptides (SEQ ID NO:1), peak at 2068 Da (cyclo(GMMCVTHCNG); also: disulfide-linked dimer of two identical cyclic peptides, Cys not given here)”, the “CIF activity of synthesized monomer and dimer” value in data set [2] is “strongly positive”; in data set [2] (listed as synthetic dimer), “CIF positive”.
Regarding “peptide B: two head-to-tail cyclized SEQ ID NO:1 peptides; Cys at position 4 disulfide bonded to Cys at position 4 of the second (chain 1 GMMCVTHCNG; chain 2 GMMCVTHCNG; disulfide I:4-II:4; cysteine pairing not given here; also: head-to-tail to a chain's N/C-terminus)”, in data set [2], the “contact inhibition activity of cyclic peptide dimer isomers” value is given as “suitable contact inhibitors”.
The same measure, in the same setting: in the case of “peptide E: SEQ ID NO:1 head to tail cyclized, attached via a disulfide bond, one Cys on each sequence acetamidomethyl (Acm) protected (chain 1 GMMCVTHCNG; chain 2 GMMCVTHCNG; disulfide (positions not given here); also: one Cys per chain Acm-protected, which not given here, head-to-tail to a chain's N/C-terminus)” it was “did not have activity; also recorded: not effective contact inhibitors”.
Same read-out and setting: the result for “peptide F: SEQ ID NO:1 head to tail cyclized, attached via a disulfide bond, one Cys on each sequence acetamidomethyl (Acm) protected (chain 1 GMMCVTHCNG; chain 2 GMMCVTHCNG; disulfide (positions not given here); also: one Cys per chain Acm-protected, position not given here, head-to-tail to a chain's N/C-terminus, head-to-tail to a chain's N/C-terminus)” reads “did not have activity; also recorded: not effective contact inhibitors”; that for “peptide C: two head-to-tail cyclized SEQ ID NO:1 peptides; Cys at position 8 disulfide bonded to Cys at position 4 of the second (chain 1 GMMCVTHCNG; chain 2 GMMCVTHCNG; disulfide I:8-II:4; cysteine pairing not given here; also: head-to-tail to a chain's N/C-terminus)”, “suitable contact inhibitors”; that for “peptide D: SEQ ID NO:1 head to tail cyclized, attached via a disulfide bond, one Cys on each sequence acetamidomethyl (Acm) protected (chain 1 GMMCVTHCNG; chain 2 GMMCVTHCNG; disulfide (positions not given here); also: one Cys per chain Acm-protected, which not given here, head-to-tail to a chain's N/C-terminus)”, “did not have activity; also recorded: not effective contact inhibitors”.
On the same count and under the same terms, in the case of “peptide A: two head-to-tail cyclized SEQ ID NO:1 peptides; Cys at position 8 disulfide bonded to Cys at position 8 of the second (chain 1 GMMCVTHCNG; chain 2 GMMCVTHCNG; disulfide I:8-II:8; cysteine pairing not given here; also: head-to-tail to a chain's N/C-terminus)” it was “suitable contact inhibitors”.
